Tests used:
[1] = biological target: T1, PPAR-γ (Homo sapiens, UniProt P37231); test: PPAR-γ ELISA Assay in HeLa cells (in vitro PPAR-γ assay); type: cell-based; conditions: 50 μg/mL; for PPAR-γ activity in the in vitro assay (in words): versus positive control rosiglitazone
T1 construct: endogenous in cells; host or cells: HeLa
T1 sequence (P37231 1-505): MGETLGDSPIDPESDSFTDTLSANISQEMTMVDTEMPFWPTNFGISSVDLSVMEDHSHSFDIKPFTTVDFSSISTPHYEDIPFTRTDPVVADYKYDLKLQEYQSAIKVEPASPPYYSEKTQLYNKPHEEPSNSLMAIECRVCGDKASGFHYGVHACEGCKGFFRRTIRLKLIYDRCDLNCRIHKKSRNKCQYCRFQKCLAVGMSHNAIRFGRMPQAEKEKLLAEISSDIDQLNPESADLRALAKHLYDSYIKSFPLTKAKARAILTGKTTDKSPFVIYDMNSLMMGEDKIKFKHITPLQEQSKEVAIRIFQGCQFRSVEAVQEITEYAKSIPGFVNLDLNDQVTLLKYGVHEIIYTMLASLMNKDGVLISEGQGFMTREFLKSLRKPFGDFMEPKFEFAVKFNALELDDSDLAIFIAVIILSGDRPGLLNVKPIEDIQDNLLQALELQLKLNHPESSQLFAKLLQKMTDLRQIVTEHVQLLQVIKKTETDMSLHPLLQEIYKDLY
Procedure: In addition to the Western blot, the diverse library was also screened in the in vitro PPAR-γ assay. […] The compounds were tested at 50 μg/mL according to the protocol detailed in section 3.2.3.

[2] = Solubility in NMR solvents; type: physicochemical; conditions: CD3OD
Procedure: Solubility of the fractions was a challenge, and chloroform-d (CDCl3), […], methanol-d4 (CD3OD), dimethyl sulfoxide-d6, and water-d2 (D2O) (Cambridge Isotope Laboratories, Tewksbury, MA, USA) were all tried as solvents. […] Since there was only 1.5 mg of material, further purification and structure elucidation were not pursued.
Fraction 3 was most soluble in D2O, and at approximately 11 mg/mL, ^1H and ^13C NMR data were obtained in an effort to confirm the presence of an isopropyl ether derivative (40). However, solubility of fraction 3 continued to be problematic even in D2O. Further acquisition attempts with increased probe temperature (310 K) were no more successful at keeping the compound (40) in solution.

[3] = system: GLUT-4; test: Diabetic zebrafish Western blot, GLUT-4 expression; type: in vivo; conditions: 10 μM, FIG. 5
Procedure: Alloxan-induced diabetic zebrafish were treated with compounds for immunoblot to validate the newly developed animal model, determine the antidiabetic potential of natural product leads, evaluate glucose metabolism, and discover possible mechanisms of action.
At 72 hpf, naturally dechorionated zebrafish were sorted into a 24-well microplate with 10 fish per well. Type 2 diabetes was induced with the diabetogenic agent alloxan at a dose of 0.5 mg/mL in system water for 3 hours. The incubation solution was changed to 0.01% DMSO in system water with compounds at concentrations of 20 μg/mL or […], respectively. After 3 hours of treatment with natural product samples, 10 mg/mL D-glucose was administered in system water for 30 minutes, followed by 1 hour in fresh system water to metabolize the glucose and natural product leads. Upon completion of the 4-phase treatment cycle, zebrafish treatment groups were snap frozen into individual microcentrifuge tubes on dry ice, stored overnight at −80° C., thawed, homogenized with 2 μL PBS per animal, and centrifuged at 4° C. for 1 hour at 17,000 rpm. Protein content of homogenate supernatant was determined using the Pierce BCA Protein Assay kit (Pierce Biotechnology) and bovine serum albumin (BSA) standard curve. Absorbance of protein solutions from zebrafish homogenates and serial dilutions of the BSA standard were measured at 544 nm, using a FLUOstar Optima plate reader (BMG Labtechnologies GmbH, Inc.). Homogenates were analyzed by Western blot. Equal amounts of protein (20 μg) were combined with 4× lithium dodecyl sulphate (LDS) loading buffer (NuPAGE, Life Technologies, Carlsbad, CA, USA), brought to volume (15 μL) with PBS, and heated to 95° C. for 5 minutes. […]
Electrophoresis was performed using NuPAGE MES SDS Running Buffer and XCell SureLock Mini-Cell Electrophoresis System (Life Technologies). […] Conjugated antibodies were detected using SuperSignal West Femto chemiluminescent substrate from Pierce Biotechnology. […] Band density was quantified for proteins of interest using ImageJ Gel Analysis. […]

With `COc1cc(O[C@@H]2OCC(O)(CO[C@@H]3OC(CO)[C@@H](O)C(O)C3O)C2O)c2c(-c3ccc(OC(C)C)c(O)c3)cc(=O)oc2c1` (single isomer, unassigned) [Compound 40] the activation at 50 µg/mL ([1]; Table 4) was 0%, the “PPAR-γ activity in the in vitro assay (in words)” value [1] was “loss of all activity” and the “solubility (relative)” value [2] was “even less soluble than 24”.

With `COc1cc(O[C@@H]2O[C@H](CO[C@@H]3OCC(O)(CO)[C@H]3O)[C@@H](O)[C@H](O)[C@H]2O)c2c(-c3ccc(O)c(O)c3)cc(=O)oc2c1` (stereo partly drawn) [Compound 24, 5-O-[β-D-apiofuranosyl-(1→6)-β-D-glucopyranosyl]-7-methoxy-3′,4′-dihydroxy-4-phenylcoumarin] the “GLUT-4 expression (Western blot)” value [3] was “strong GLUT-4 expression”, the “% Activation PPAR-γ” value ([1]; Table 2) was 101% and the “% Activation PPAR-γ” value ([1]; Table 4) was 101%. The “PPAR-γ activity in the in vitro assay (in words)” value [1] was “top performers”.

Source: patent US20240398844A1, “PHENYLCOUMARINS FOR TREATING INFLAMMATION” (Ohio State Innovation Foundation, priority 2021, published 2024)
